Earlier results, collected in PMC8533211, “Computationally Assisted Lead Optimization of Novel Potent and Selective MAO-B Inhibitors” (Biomedicines, 2021).

How the values were obtained:
human recombinant MAO A = conditions: human recombinant; kynuramine; cited from earlier work
human recombinant MAO B = conditions: cited from earlier work
human recombinant MAO-B = biological target: T1, human recombinant MAO-B (Homo sapiens, UniProt P27338); design: purchased BD Biosciences (Bedford, MA, USA); conditions: cited from earlier work
T1 sequence (P27338 1-520): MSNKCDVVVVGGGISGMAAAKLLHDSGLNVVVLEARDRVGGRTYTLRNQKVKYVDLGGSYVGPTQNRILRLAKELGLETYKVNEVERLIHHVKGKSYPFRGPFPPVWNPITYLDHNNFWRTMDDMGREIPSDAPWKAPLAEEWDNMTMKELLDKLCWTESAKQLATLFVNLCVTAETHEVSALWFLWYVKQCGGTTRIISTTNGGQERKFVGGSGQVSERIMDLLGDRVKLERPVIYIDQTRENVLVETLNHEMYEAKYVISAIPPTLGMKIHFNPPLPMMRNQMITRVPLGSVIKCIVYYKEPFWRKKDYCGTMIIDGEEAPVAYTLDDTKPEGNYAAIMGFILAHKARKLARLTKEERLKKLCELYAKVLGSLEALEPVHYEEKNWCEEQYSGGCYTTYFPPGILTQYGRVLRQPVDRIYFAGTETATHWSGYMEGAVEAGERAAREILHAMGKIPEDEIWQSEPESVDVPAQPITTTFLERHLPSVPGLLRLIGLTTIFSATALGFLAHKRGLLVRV

COc1ccc(-c2cc(=O)c3c(O)cc(OC)cc3o2)cc1 [Acacetin 7-O-methyl ether]
IC50 (human recombinant MAO A): > 100000 nM | Selectivity Index MAO-A/B (human recombinant MAO B): >505.05 | selectivity index (SI) for MAO A/B (human recombinant MAO B): > 505 fold | IC50 (human recombinant MAO B; human recombinant, kynuramine): 198 ± 1 nM | Monoamine Oxidase B Type of Inhibition (human recombinant MAO-B): competitive/partially reversible
